Measured values published in patent US20180271097A1, “HETEROCYCLIC TRIFLUOROALKENYL COMPOUNDS HAVING A NEMATOCIDAL ACTIVITY, THEIR AGRONOMIC COMPOSITIONS AND USE THEREOF” (ISAGRO S.P.A., priority 2015, published 2018).

What was measured:
[1] = tested on: Meloidogyne spp.; assay: Nematocidal activity against Meloidogyne spp., application with already cultivating crop (tomato in pots); assay type: in vivo; conditions: tomatoes, 4,000 g/hectare, repeated treatment after transplantation (already cultivating crop); for Root development: 60 days after transplantation, 100% = healthy root; for Gall index (scale 0-10) / Weight of plant: survey 60 days after transplantation
Method: (§1) The tests, aimed at testing the nematocidal activity of the product under consideration, were carried out using inocula taken from a breeding of Meloidogyne spp. maintained on tomato and tobacco plants in pots and grown in a greenhouse.
(§2) In order to perform the experiments, portions of roots having a large number of galls, and ground, in which larvae are present, starting from the second stage of age, were collected from the infested pots.
(§3) New pots having a diameter of 15 cm were half-filled with sterile earth. The portions of infested roots, previously cleaned, were positioned on the same in order to correctly evaluate the degree of infestation and ensure that each pot contained the same nematic charge. 200-300 g of infested earth were then added and subsequently covered with a thin layer of sterile earth.
(§4) The treatment was effected by pouring, onto the surface of the ground, 100 ml of solution in which the product to be tested was dissolved.
(§5) Tomato seedlings at a stage of two-three true leaves were transplanted into the pots thus prepared. Different tomato cultivars were adopted, having a different sensitivity to the parasite and with different growth rates. In particular, an ornamental variety (cv Microtom) was used for evaluating the final production, whose seedlings have reduced dimensions and are capable of reaching maturity of the fruit in pots and under greenhouse conditions, in about two months.
(§6) The capacity of limiting the parasite was detected, at a distance of 30 and 60 days after transplanting, considering the development of the root system (wherein 100% is the development reached by the comparative healthy root) and the presence of galls on the roots. The presence of galls in the roots was estimated using the infestation scale proposed by Bridge and Page, in which the value zero corresponds to 0% of affected root and the value of 10 corresponds to 100% of infested root.
Determination of the Nematocidal Activity Against Meloidogyne Spp. (Application with Already Cultivating Crop)
The same experimental procedure as Example 4 was adopted for evaluating the nematocidal activity of the products under examination, except for the fact that this evaluation was effected by applying the product during the development of the seedlings (according to what is indicated in the label of the commercial reference product VYDATE® (Oxamil)).
Table 5 indicates the results relating to the effectiveness of compounds 1, 2, 6 and the compound CR1 on tomatoes at a dose of 4,000 g/hectare effecting the survey 60 days after transplantation.

[2] = tested on: Meloidogyne spp.; assay: Nematocidal activity against Meloidogyne spp., application 7 days before transplantation (tomato in pots); assay type: in vivo; conditions: tomatoes, 4,000 g/hectare, treatment 7 days before transplantation; for Root development: 60 days after transplantation, 100% = development of comparative healthy root; for Height of plant (cm) / Gall index (scale 0-10): assessment 60 days after transplantation; for Gall index (scale 0-10): Bridge and Page scale, 0 = 0% affected root, 10 = 100% infested root
Method: Determination of the Nematocidal Activity Against Meloidogyne Spp. (Application 7 Days Before Transplantation)
as §1, §2, §3, §4, §5
The evaluation of the product under consideration was effected by treating the pots 7 days before transplantation (according to what is indicated in the label of the commercial reference product NIMITZ® (Fluensulfone)).
The product was evaluated considering the possible phytotoxic effects that can jeopardize the development of the plant (a zero-ten scale was used wherein: zero=no symptoms, 10=plant destroyed) and the effectiveness with respect to nematodes.
as §6
Table 2 indicates the results relating to the effectiveness of Compounds 1, 2 and 22 and Compounds CR1, CR2, CR3 on tomatoes at a dosage of 4,000 g/hectare, effecting the assessment 60 days after the transplantation.

[3] = tested on: tomatoes; assay: Phytotoxicity on tomatoes, application with already cultivating crop; assay type: in vivo, tomato; conditions: zero = no symptoms, 10 = plant destroyed
Method: The product was evaluated considering the possible phytotoxic effects that can jeopardize the development of the plant (a zero-ten scale was used wherein: zero=no symptoms, 10=plant destroyed) and the effectiveness with respect to nematodes. Table 6 indicates the results relating to phytotoxicity on tomatoes applying compounds 1, 2, 6, 9, 71, 75, 76 and CR1 with already cultivating crop: […]

[4] = tested on: Meloidogyne spp.; assay: Nematocidal activity against Meloidogyne spp., application at the moment of transplantation (tomato in pots); assay type: in vivo; conditions: tomatoes, 4,000 g/hectare, 1 treatment at the moment of transplantation; for Root development: 60 days after transplantation, 100% = healthy root; for Gall index (scale 0-10) / Weight of plant: survey 60 days after transplantation
Method: as §1, §2, §3, §4, §5, §6
Determination of the Nematocidal Activity Against Meloidogyne Spp. (Application at the Moment of Transplantation)
The same experimental procedure as Example 4 was adopted for evaluating the nematocidal activity of the products under examination, except for the fact that this evaluation was effected by applying the product at the moment of transplantation.
Tables 3 and 4 indicate the results relating to the effectiveness of compounds 9, 10, 71, 75, 76 and the reference compound CR1 on tomatoes at a dose of 4,000 g/hectare effecting the survey 60 days after transplantation.

Structure (SMILES) | Root development [1] [%] | Gall index (scale 0-10) [1] [scale 0-10] | Weight of plant [1] [g] | Root development [2] [%] | Height of plant (cm) [2] [cm] | Gall index (scale 0-10) [2] [scale 0-10] | Phytotoxicity (scale 0-10) [3] [scale 0-10] | Root development ([4]; Table 3 test) [%] | Gall index (scale 0-10) ([4]; Table 3 test) | Weight of plant ([4]; Table 3 test) [g] | Root development ([4]; Table 4 test) [%] | Gall index (scale 0-10) ([4]; Table 4 test) | Weight of plant ([4]; Table 4 test) [g]
Cc1nnc([S+]([O-])CCC(F)=C(F)F)s1 (stereo not shown) [Nr 1, 2-(3,4,4-trifluoro-3-butenylsulfinyl)-5-methyl-1,3,4-thiadiazole] | 100 | 1.0 | 36 | 95 | 75 | 1.0 | 0 | – | – | – | – | – | –
CC(C)Cc1nnc(S(=O)(=O)CCC(F)=C(F)F)s1 [Nr 10] | – | – | – | – | – | – | – | 75 | 2.0 | 88 | – | – | –
Cc1nnc(S(=O)(=O)CCC=C(F)F)s1 [CR3, 2-(4,4-difluoro-3-butenylsulfonyl)-5-methyl-1,3,4-thiadiazole, reference compound] | – | – | – | 75 | 70 | 1.5 | – | – | – | – | – | – | –
Cc1nnc(SCCC(F)=C(F)F)s1 [CR2, 2-(3,4,4-trifluoro-3-butenylthio)-5-methyl-1,3,4-thiadiazole, reference compound] | – | – | – | 70 | 60 | 2.0 | – | – | – | – | – | – | –
O=S(=O)(CCC(F)=C(F)F)c1ncc(Cl)s1 [CR1, 5-chloro-2-(3,4,4-trifluoro-3-butenylsulfonyl)-thiazole, reference compound] | 32 | 1.5 | 25 | 70 | 71 | 2.0 | 3 | 60 | 1.5 | 62 | 80 | 1.0 | 50
CC1(C)CC([S+]([O-])CCC(F)=C(F)F)=NO1 (stereo not shown) [Nr 75] | – | – | – | – | – | – | 0 | – | – | – | 100 | 1.0 | 50
Cc1nnc(S(=O)(=O)CCC(F)=C(F)F)s1 [Nr 2, 2-(3,4,4-trifluoro-3-butenylsulfonyl)-5-methyl-1,3,4-thiadiazole] | 100 | 0.0 | 33 | 95 | 76 | 1.0 | 0 | – | – | – | – | – | –
O=S(=O)(CCC(F)=C(F)F)c1nnc(Cl)s1 [Nr 22, 2-(3,4,4-trifluoro-3-butenylsulfonyl)-5-chloro-1,3,4-thiadiazole] | – | – | – | 90 | 73 | 1.5 | – | – | – | – | – | – | –
CC1(C)CC(S(=O)(=O)CCC(F)=C(F)F)=NO1 [Nr 76] | – | – | – | – | – | – | 0 | – | – | – | 100 | 1.5 | 51
CC(C)Cc1nnc([S+]([O-])CCC(F)=C(F)F)s1 (stereo not shown) [Nr 9] | – | – | – | – | – | – | 0 | 70 | 2.0 | 116 | – | – | –
CC(C)c1nnc(S(=O)(=O)CCC(F)=C(F)F)s1 [Nr 6] | 95 | 2.0 | 40 | – | – | – | 0 | – | – | – | – | – | –
